Measurements reported in patent US6562584B1, “Bacterial strains for the production of 2-keto-L-gulonic acid” (priority 1998, dated 2003).

Columns and labels:
[1] = test system: strains NRRL B-30035, NRRL B-30037N, and NRRL B-30036; test: Antibiotic resistance by minimum inhibitory concentration (MIC), commercial "Pasco" system; assay type: cell-based; conditions: strains NRRL B-30035 (ADM 291-19), NRRL B-30037N (ADM 62A-12A), NRRL B-30036 (ADM 266-13B), based on physiologically attainable concentrations of antibiotic
Source text: (6) Antibiotic resistance—sensitive to amikacin, augmentin (amoxicillin plus clavulonic acid), ampicillin, cefazolin, cefoxitin, ceftazidime, ceftiofur, cephalothin, enrofloxacin, florfenicol, gentamicin, imipenem, kanamycin, sarafloxicin, tetracycline, ticarcillin, and tilmicosin, but resistant to tribrissen ([…] plus sulfamethozole), as determined by minimum inhibitory concentration (MIC), based on physiologically attainable concentrations of antibiotic, employing the commercial “Pasco” system; and […]

mouse astrogial cells = conditions: Bishop et al., Nutrition Reviews 56:287-293 (1998); cited from earlier work

| Compound | Antibiotic resistance (sensitive / resistant) as determined by minimum inhibitory concentration (MIC) [1] | nerve growth factor synthesis (mouse astrogial cells) |
| --- | --- | --- |
| O=C(O)c1cn(-c2ccc(F)cc2)c2cc(N3CCNCC3)c(F)cc2c1=O [sarafloxicin] | sensitive |  |
| CC1(C)S[C@@H]2[C@H](NC(=O)[C@H](C(=O)O)c3ccsc3)C(=O)N2[C@H]1C(=O)O [ticarcillin] | sensitive |  |
| CC(C)(O/N=C(\C(=O)N[C@@H]1C(=O)N2C(C(=O)[O-])=C(C[n+]3ccccc3)CS[C@H]12)c1csc(N)n1)C(=O)O [ceftazidime] | sensitive |  |
| CC1(C)S[C@@H]2[C@H](NC(=O)[C@H](N)c3ccccc3)C(=O)N2[C@H]1C(=O)O [ampicillin] | sensitive |  |
| CO/N=C(\C(=O)N[C@@H]1C(=O)N2C(C(=O)O)=C(CSC(=O)c3ccco3)CS[C@H]12)c1csc(N)n1 [ceftiofur] | sensitive |  |
| Cc1nnc(SCC2=C(C(=O)O)N3C(=O)[C@@H](NC(=O)Cn4cnnn4)[C@H]3SC2)s1 [cefazolin] | sensitive |  |
| O=C(O)c1cc(C(=O)O)c2c(n1)C(=O)C(=O)c1cc(C(=O)O)[nH]c1-2 [PQQ, 2,7,9-tricarboxy-1H-pyrrolo[2,3-f]quino-line-4,5-dione] |  | increases |
| NCC[C@H](O)C(=O)N[C@@H]1C[C@H](N)[C@@H](O[C@H]2O[C@H](CN)[C@@H](O)[C@H](O)[C@H]2O)[C@H](O)[C@H]1O[C@H]1O[C@H](CO)[C@@H](O)[C@H](N)[C@H]1O [amikacin] | sensitive |  |
| CS(=O)(=O)c1ccc([C@@H](O)[C@@H](CF)NC(=O)C(Cl)Cl)cc1 [florfenicol] | sensitive |  |
| CC(=O)OCC1=C(C(=O)O)N2C(=O)[C@@H](NC(=O)Cc3cccs3)[C@H]2SC1 [cephalothin] | sensitive |  |
| gentamicin | sensitive |  |
| CCN1CCN(c2cc3c(cc2F)c(=O)c(C(=O)O)cn3C2CC2)CC1 [enrofloxacin] | sensitive |  |
| CO[C@@]1(NC(=O)Cc2cccs2)C(=O)N2C(C(=O)O)=C(COC(N)=O)CS[C@@H]21 [cefoxitin] | sensitive |  |
| CC[C@H]1OC(=O)C[C@@H](O)[C@H](C)[C@@H](O[C@@H]2O[C@H](C)[C@@H](O)[C@H](N(C)C)[C@H]2O)[C@@H](CCN2C[C@H](C)C[C@H](C)C2)C[C@@H](C)C(=O)/C=C/C(C)=C/[C@@H]1CO[C@@H]1O[C@H](C)[C@@H](O)[C@@H](OC)[C@H]1OC [tilmicosin] | sensitive |  |
